Assay results published in patent US12168020B2, “Method for ameliorating, preventing or treating muscular atrophy or sarcopenia by administering composition comprising 2′-fucosyllactose as active ingredient” (ADVANCED PROTEIN TECHNOLOGIES CORP., priority 2021, dated 2024).

Experiments:
[1] = tested on: differentiated C2C12 treated with dexamethasone; assay: Protection against dexamethasone-induced growth inhibition (trypan blue cell count); assay type: cell-based, mouse; conditions: 2′-FL high concentration (200 μM) 1 hour before dexamethasone 400 μM for 24 hours, vs dexamethasone group (Veh)
Description: Dexamethasone, a synthetic glucocorticoid, is known to decrease the rate of protein synthesis and increase the rate of protein degradation in muscles in vivo or in cultured cells. Accordingly, 1 hour after treatment of C2C12, which had been differentiated, with 2′-FL, C2C12 was treated with dexamethasone at a concentration of 400 μM for 24 hours to determine the muscular atrophy prevention effect of 2′-FL in a cell model. In order to evaluate the prophylactic effect of growth inhibition caused by treatment with dexamethasone, C2C12 was treated with 2′-FL and dexamethasone in the same manner as above, the cells were removed with trypsin, and the number of the cells was counted using trypan blue staining.

atrogin-1 gene = assay: qPCR of muscular atrophy gene atrogin-1 after dexamethasone; assay type: cell-based, mouse; conditions: 2′-FL 100 or 200 μM, dexamethasone 400 μM 24 hours, vs dexamethasone group (Veh)
[2] = tested on: differentiated C2C12 treated with dexamethasone, mitochondria; assay: Protection against dexamethasone-induced mitochondrial function inhibition; assay type: cell-based, mouse; conditions: 2′-FL 100 or 200 μM, dexamethasone 400 μM 24 hours, vs dexamethasone group
Description: Dexamethasone, a synthetic glucocorticoid, is known to decrease the rate of protein synthesis and increase the rate of protein degradation in muscles in vivo or in cultured cells. Accordingly, 1 hour after treatment of C2C12, which had been differentiated, with 2′-FL, C2C12 was treated with dexamethasone at a concentration of 400 μM for 24 hours to determine the muscular atrophy prevention effect of 2′-FL in a cell model. After treatment with dexamethasone, mtDNA expression and mitochondrial density were measured. […] In FIG. 6, 2FLL represents a group treated with 2′-FL at 100 μM, and 2FLH represent a group treated with 2′-FL at 200 μM.

C57BL/6 mice [3] = assay: Dexamethasone-induced muscular atrophy mouse model: body weight and plasma liver function test; assay type: in vivo; conditions: dexamethasone 10 mg/kg i.p., vs Veh
Description: (§1) In order to determine whether or not 2′-FL has a prophylactic effect against muscular atrophy in an animal model, 2′-FL was orally administered at a concentration of 200 or 400 mg/kg to 7-week-old male C57BL/6 mice for 7 days, followed by intraperitoneal injection of dexamethasone known as a drug inducing muscular atrophy at a concentration of 10 mg/kg, and at the same time, oral administration of 2′-FL for 2 weeks. At this time, the experiment was conducted on mouse experimental groups, namely, a Nor group that received intraperitoneal injection of saline and distilled water, a that received intraperitoneal injection of Veh group dexamethasone and was orally administered distilled water, and a 2FLL group and a 2FLH group that received intraperitoneal injection of dexamethasone and was orally administered 2′-FL at 200 mg/kg and 400 mg/kg, respectively.

C2C12 myotubes, MHC = assay: MHC expression analysis by immunocytochemical staining (myocyte differentiation); assay type: cell-based, mouse; conditions: C2C12, 2′-FL 100 and 200 μM, 24 hours, vs control group
Description: In order to differentiate mouse myoblasts into myotubes, the mouse myoblasts were seeded at a concentration of 4×10^5 cells/well in each well of a 6-well plate, cultured for 24 hours until confluence reached 100% and then 2% horse serum was added thereto. Then, the mouse myoblasts were differentiated for 6 days while exchanging the DMEM containing 2% horse serum with fresh DMEM every 2 days. Immunocytochemical staining was performed to determine the effect of treatment with 2′-FL on myocyte differentiation. Specifically, C2C12 was treated with 2′-FL at different concentrations (100 and 200 μM) for 24 hours, and then fixed with a 4% paraformaldehyde solution for 10 minutes. The fixed cells were washed with PBS containing 0.1% Triton X-100 and then reacted in 5% BSA solution for 1 hour. The cells were washed 3 times with 1×PBS again and then were allowed to react with an MHC antibody (Cell signaling) at room temperature overnight. After the reaction was completed, the cells were washed 3 times with PBS and reacted with Alexa Fluor 488 goat anti-rabbit IgG at room temperature for 1 hour, and then nuclei thereof were stained with a horchest solution and observed under a fluorescence microscope. At this time, the AMPK agonist A-769662 (1 μM) was used as a positive control.

PGC-1α mRNA = assay: qPCR of mitochondrial biosynthesis gene PGC-1α; assay type: cell-based, mouse; conditions: C2C12, 2′-FL at a high concentration, vs control group
Excerpt: (§2) Mitochondria are organelles that have a main function of generating ATP, which is a form of intracellular energy, and perform various intracellular functions such as metabolism, signal transduction, apoptosis, and differentiation. Metabolic adaptation in skeletal muscle is achieved by the regulation of various genes, and PGC-1α (peroxisome proliferator-activated receptor-γ coactivator-1α) transcriptional cofactor is known to perform the most important role therefor. Accordingly, the mRNA expression changes of PGC-1α and the downstream gene thereof, NRF2, were determined upon treatment with 2′-FL.
(§3) For this purpose, CDNA was synthesized from RNA extracted from C2C12 cells using ReverTra Ace qPCR RT Kit (TOYOBO). In order to increase the efficiency of the reaction, the RNA was pre-heated at 65° C. for 5 minutes and then immediately stored on ice. Then, a total of 8 μl of reagent was prepared from 2 μl of 4×DN master mix containing a gDNA remover, 0.5 μg of mRNA, and nuclease-free water, and then was amplified at 37° C. for 5 minutes.
(§4) The reacted reagent was added with a 5×RT master mix, and amplified at 37° C. for 15 minutes, at 50° C. for 5 minutes, and at 98° C. for 5 minutes to synthesize cDNA. Then, the synthesized cDNA was subjected to qPCR using Thunderbird TMSYBR qPCR mix reagent (TOYOBO). The gene expression level was analyzed with the iQ5 Cycler System (Bio-Rad). […]

[4] = tested on: differentiated C2C12, mitochondria; assay: Mitochondrial function: mtDNA expression and mitochondrial density (MitoTracker); assay type: cell-based, mouse; conditions: differentiated C2C12, 2′-FL 100 and 200 μM, 24 hours, vs control group
Description: Mitochondria have mitochondrial DNA (mtDNA) that is isolated from their own nuclear DNA. […] Such damage to mtDNA causes a decrease in mitochondrial function, leading to a decrease in synthesis of ATP, which is an energy molecule required for cellular a decrease in the ability to regulate activity, and homeostasis in vivo, which eventually causes the onset of various diseases. Accordingly, mtDNA expression and mitochondrial density upon treatment with 2′-FL were measured. […] C2C12 was treated with 2′-FL at different concentrations (100 and 200 μM) for 24 hours, was washed with PBS, added with a medium containing 200 nM of a MitoTracker green probe and cultured for 30 minutes. Then, the portion bound to the MitoTracker green probe was quantified with SpectraMax that absorbs a wavelength of 490 nm and emits a wavelength of 516 nm to measure the density of mitochondria. At this time, the AMPK agonist A-769662 (1 μM) was used as a positive control.

[5] = tested on: C2C12 myotubes treated with dexamethasone; assay: Protection against dexamethasone-induced differentiation inhibition (myotube length and diameter); assay type: cell-based, mouse; conditions: 2′-FL high concentration (200 μM), dexamethasone 400 μM 24 hours, vs dexamethasone group (Veh)
Description: Dexamethasone, a synthetic glucocorticoid, is known to decrease the rate of protein synthesis and increase the rate of protein degradation in muscles in vivo or in cultured cells. Accordingly, 1 hour after treatment of C2C12, which had been differentiated, with 2′-FL, C2C12 was treated with dexamethasone at a concentration of 400 μM for 24 hours to determine the muscular atrophy prevention effect of 2′-FL in a cell model. Meanwhile, in order to evaluate the prophylactic effect of the differentiation inhibition caused by treatment with dexamethasone, the length and diameter of myotubes were measured after treatment with dexamethasone.

[6] = tested on: C57BL/6 mice, muscle tissue; assay: Dexamethasone-induced muscular atrophy mouse model: H&E muscle histology and muscle tissue weight; assay type: in vivo; conditions: 2FLH (2′-FL 400 mg/kg oral), dexamethasone 10 mg/kg i.p., vs Veh
Description: as §1, with “respectively. The mouse muscle tissue was stained using the H&E method and then histological morphology was observed.” for “respectively.”

[7] = tested on: C2C12, a mouse muscle (myoblast) cell line; assay: MTT assay, cytotoxicity of 2′-FL in C2C12; assay type: cell-based; conditions: C2C12, 2′-FL 100, 200, 400 μM, 24 hours, vs control group
Description: C2C12, a mouse muscle (myoblast) cell line, was cultured at 37° C. in the presence of 5% CO2 using a medium containing 90% DMEM, 10% FBS, and 10 unit/ml penicillin-streptomycin. In order to confirm the cytotoxicity of 2′-FL, the C2C12 cell line was seeded in each well of a 96-well plate at a concentration of 5×10^4 cells/well, cultured for 24 hours, and then treated with 2′-FL at various concentrations (100, 200, 400 μM) for 24 hours. Then, the medium was removed and a growth medium and 0.5 mg/ml of a diluted MTT solution were aliquoted in an amount of […] and incubated in a CO2 incubator. After 2 hours, the MTT reagent was removed, formazin was dissolved in DMSO (dimethyl sulfoxide), and absorbance was measured at 540 nm.

NRF2 mRNA = assay: qPCR of mitochondrial biosynthesis gene NRF2; assay type: cell-based, mouse; conditions: C2C12, 2′-FL at a high concentration, vs control group
Excerpt: as §2, §3, §4

atrogin-1 protein = assay: Dexamethasone-induced muscular atrophy mouse model: atrogin-1 immunoblotting of muscle tissue; assay type: in vivo; conditions: 2′-FL at a high concentration (400 mg/kg oral), dexamethasone 10 mg/kg i.p., vs Veh
Description: In order to determine whether or not 2′-FL has a prophylactic effect against muscular atrophy in an animal model, 2′-FL was orally administered at a concentration of 200 or 400 mg/kg to 7-week-old male C57BL/6 mice for 7 days, followed by intraperitoneal injection of dexamethasone known as a drug inducing muscular atrophy at a concentration of 10 mg/kg, and at the same time, oral administration of 2′-FL for 2 weeks. At this time, the experiment was conducted on mouse experimental groups, namely, a Nor group that received intraperitoneal injection of saline and distilled water, a that received intraperitoneal injection of Veh group dexamethasone and was orally administered distilled water, and a 2FLL group and a 2FLH group that received intraperitoneal injection of dexamethasone and was orally administered 2′-FL at 200 mg/kg and 400 mg/kg, respectively. Proteins were extracted by adding a Halt™ protease inhibitor to lysis buffer (10 mM Tris-HCl, pH 7.5, 1% NP-40, 0.1% sodium deoxycholate, 0.1% SDS, 150 mM NaCl, and 1 mM EDTA) in order to confirm protein expression using mouse muscle tissue and then immunoblotting was performed. As primary antibodies, anti-α-tubulin (1:1000) and anti-atrogin-1 (1:1000) were used. The resulting image of immunoblotting was analyzed using a ChemiDoc™ touch imaging system (Bio-Rad) and Image Lab 5.2 software (Bio-Rad).

MuRF1 gene = assay: qPCR of muscular atrophy gene MuRF1 after dexamethasone; assay type: cell-based, mouse; conditions: 2′-FL 100 or 200 μM, dexamethasone 400 μM 24 hours, vs dexamethasone group (Veh)
C57BL/6 mice [8] = assay: Dexamethasone-induced muscular atrophy mouse model: grip strength test; assay type: in vivo; conditions: 2′-FL 200 or 400 mg/kg oral, dexamethasone 10 mg/kg i.p., day before end of experiment, vs Veh
Description: as §1, with “respectively. All experimental animals were subjected to a grip strength test using a grip strength meter (Jeongdo Bio & Plant Co., Ltd.) the day before the end of the experiment.” for “respectively.”

## 2′-fucosyllactose [2′-FL]
[1]
  number of cells: significantly increased
atrogin-1 gene
  atrogin-1 gene expression: significantly decreased
[2]
  mitochondrial function (mtDNA expression and mitochondrial density): significantly increased
C57BL/6 mice [3]; 2FLH (2′-FL 400 mg/kg oral), 3 weeks
  mouse weight: increased
C57BL/6 mice [3]; 2′-FL 200 or 400 mg/kg oral
  plasma GOT activity: lowered
  plasma GPT activity: lowered
C2C12 myotubes, MHC
  MHC expression: increased
  length and thickness of myotubes: increased
PGC-1α mRNA
  expression of PGC-1α mRNA: significantly increased
[4]
  mitochondrial density measured using the MitoTracker: increased in a concentration-dependent manner
  mtDNA expression: significantly increased in a concentration-dependent manner
[5]
  diameter of myotubes: significantly increased
  length of myotubes: significantly increased
[6]
  muscular atrophy morphological characteristics (decreased muscle bundle size, imbalance in nuclear location), H&E: ameliorated
  weight of extensor digitorum longus: significantly increased
  weight of gastrocnemius muscle: significantly increased
  weight of muscle tissue (unspecified): significantly increased
[7]
  cell viability: no difference in cell viability
NRF2 mRNA
  expression of NRF2 mRNA: significantly increased
atrogin-1 protein
  expression of atrogin-1 protein in muscle tissue: significantly decreased
MuRF1 gene
  MuRF1 gene expression: significantly decreased
C57BL/6 mice [8]
  grip strength: significantly increased
